{"source": "patent US7101867B2", "about": "“Benzofuran derivatives, their production and use” (Takeda Pharmaceutical Company Limited, priority 1998, dated 2006)"}
{"system": "Human neuroblastoma SK-N-SH cells", "test": "Cytoprotection in human neuroblastoma SK-N-SH cells against a PI-3-kinase inhibitor, LY-294002", "format": "cell-based", "conditions": "test compound 1.0 μM with LY-294002 30 μM; survival by Alamarblue reduction one day after initiation; (A−B)/(C−B)×100", "experimental": "Cytoprotection in human neuroblastoma SK-N-SH cells against a PI-3-kinase inhibitor, LY-294002\nHuman neuroblastoma SK-N-SH cells were purchased from American Type Cell Culture (ATCC). DMEM/F-12 culture medium and potassium/magnesium-free phosphate buffer saline (PBS(−)) were purchased from Nikken Biomedical Co., Ltd., N2 additives and EDTA solution from GIBCO BRL Company, fetal bovine serum (FCS) and a mixed solution of penicillin (5000 U/ml) and streptomycin (5 mg/ml) from BioWhittaker Inc., Alamarblue™ reagent from Wako Pure Chemical Industries Ltd., culture flasks from Falcon Company, collagen-coated 96-well multi-plates from Iwaki Glass Co., Ltd., and LY-294002 from Alexis Biochemicals, respectively. As for other reagents, commercially available guaranteed reagents were used.\nBy using DMEM/F-12 culture medium which contains 5% FCS, 0.5% N2, 10 mM HEPES, and a 1% mixed solution of penicillin (5000 U/ml) and streptomycin (5 mg/ml), SK-N-SH cells were subcultured in a carbon dioxide incubator under a mixed gas atmosphere consisting of 10% carbon dioxide and 90% air. After being cultivated to a sub-confluent stage, the cells were detached by a PBS(−) solution containing 2.5 mM EDTA and seeded onto collagen-coated 96-well multi-plates in the proportion of 1.0×10^4 cells/100 μl/well. After cultivation for 24 hours, the cells thus prepared were used for the cytoprotection assay.\n(§1) There was removed 80 μl of the culture medium of SK-N-SH cells that was cultivated as described above on 96-wells, collagen-coated, multi-plates and thereto were added at the same time 40 μl each of LY-294002 of the final concentrations of 30 μM and each test compound the final concentrations of that was adjusted to be 1.0 μM, to initiate the cytotoxicity test. Hereupon, each test compound was used after adjusting the concentration to be 10 mM with dimethyl sulfoxide and LY-294002 was used after adjusting the concentration to be 100 mM with dimethyl sulfoxide, each of which was diluted prior to its use in the test.\nThe survival activity of nerve cells that were still living one day after initiation of the cytotoxicity test was determined by the activity of the cells to reduce the Alamarblue™ reagent as an index. There was removed 20 μl of the culture medium and 20 μl of Alamarblue™ reagent was added. The amount of Alamarblue™ reagent reduced by the cells over the period of 4 hours was calorimetrically determined (measurement wave length: 570 nm; reference wave length: 600 nm) By using a plate reader (WAKO SPECTRAMAX 250 Microplate Reader). Cytoprotection activity was calculated according to the following equation. Cytoprotection activity of each compound=(A−B)/(C−B)×100(%) • A: The survival activity of the group consisting of a test compound and LY-294002 added • B: The survival activity of the group consisting of LY-294002 added • C: The survival activity of the control group\nThe cytoprotection activity of each compound was obtained By using at least 4 wells for every dose of a test compound.\nCytoprotection in Human Neuroblastoma SK-N-SH Cells Against a PI-3-kinase Inhibitor, LY-294002\nas §1, with “cytotoxicity assay.” for “cytotoxicity test.”\nThe survival activity of nerve cells that were still living one day after initiation of the cytotoxicity test was determined by the activity of the cells to reduce the Alamarblue™ reagent as an index. […]", "units": {"Cytoprotection Activity (%)": "%"}}
{"smiles": "COc1cc2c(cc1OC)CN(c1c(C)c(C)c3c(c1C)C(c1ccc(C)cc1)C(C)(C)O3)C2", "note": "(stereo not shown) [Example 6a, 5,6-dimethoxy-2-[2,2,4,6,7-pentamethyl-3-(4-methylphenyl)-2,3-dihydro-1-benzofuran-5-yl]isoindoline]", "Cytoprotection Activity (%)": 28.2}
{"smiles": "Cc1ccc(C2c3c(C)c(-n4cc5cc6c(cc5c4)OCO6)c(C)c(C)c3OC2(C)C)cc1", "note": "(stereo not shown) [Example 14a, 6-[2,2,4,6,7-pentamethyl-3-(4-methylphenyl)-2,3-dihydro-1-benzofuran-5-yl]-6H-[1,3]dioxolo[4,5-f]isoindole]", "Cytoprotection Activity (%)": 26.6}
{"smiles": "Cc1c(C)c2c(c(C)c1NC(=O)c1ccc(Cl)cc1)C(c1ccc(C(C)C)cc1)C(C)(C)O2", "note": "(stereo not shown) [Example 20b, 4-Chloro-N-[3-(4-isopropylphenyl)-2,2,4,6,7-pentamethyl-2,3-dihydro-1-benzofuran-5-yl]benzamide]", "Cytoprotection Activity (%)": 12.6}
{"smiles": "Cc1c(C)c2c(c(C)c1NC(=O)c1ccc3c(c1)OCO3)C(c1ccc(C(C)C)cc1)C(C)(C)O2", "note": "(stereo not shown) [Example 22b, N-[3-(4-Isopropylphenyl)-2,2,4,6,7-pentamethyl-2,3-dihydro-1-benzofuran-5-yl]-1,3-benzodioxol-5-carboxamide]", "Cytoprotection Activity (%)": 12.8}
{"smiles": "Cc1c(C)c2c(c(C)c1NC(=O)c1cccs1)C(c1ccc(C(C)C)cc1)C(C)(C)O2", "note": "(stereo not shown) [Example 24b, N-[3-(4-Isopropylphenyl)-2,2,4,6,7-pentamethyl-2,3-dihydro-1-benzofuran-5-yl]-2-thiophenecarboxamide]", "Cytoprotection Activity (%)": 16.4}
{"smiles": "COc1ccc(CNc2c(C)c(C)c3oc(C)c(-c4ccc(C(C)C)cc4)c3c2C)cc1", "note": "[Example 45b, 3-(4-isopropylphenyl)-N-(4-methoxybenzyl)-2,4,6,7-tetramethyl-1-benzofuran-5-amine]", "Cytoprotection Activity (%)": 20.6}
{"smiles": "COc1ccc(C(=O)Nc2c(C)c(C)c3c(c2C)C(c2ccc(C(C)C)cc2)C2(CCN(C)CC2)O3)cc1", "note": "(stereo not shown) [Example 52b, N-[3-(4-Isopropylphenyl)-1′,4,6,7-tetramethylspiro[benzofuran-2(3H),4′-piperidine]-5-yl]-4-methoxybenzamide]", "Cytoprotection Activity (%)": 16.4}
